Measurements: the NIST ThermoML archive (doi:10.1016/j.jct.2017.05.001)
± gives the expanded uncertainty stated by the source.

Assay: wn = mass fraction of the nth substance listed
Details: Liquid; for mass density: Vibrating tube method; for viscosity: Falling or rolling sphere viscometry

OCCNCCO [diethanolamine] + O
Details | mass density, w1 = 0.0993 [kg/m3] | mass density, w1 = 0.2 [kg/m3] | mass density, w1 = 0.3002 [kg/m3] | mass density, w1 = 0.3997 [kg/m3] | viscosity, w1 = 0.0993 [mPa·s] | viscosity, w1 = 0.2 [mPa·s] | viscosity, w1 = 0.3002 [mPa·s] | viscosity, w1 = 0.3997 [mPa·s]
353.15 K, 60000 kPa | – | – | 1026.4 ± 0.7 | 1036.7 ± 0.7 | – | – | – | –
353.15 K, 70000 kPa | 1010 ± 0.7 | 1019.8 ± 0.7 | 1029.9 ± 0.7 | 1040.2 ± 0.7 | – | – | – | –
353.15 K, 80000 kPa | 1013.7 ± 0.7 | 1023.4 ± 0.7 | 1033.4 ± 0.7 | 1043.6 ± 0.7 | 0.4886 ± 0.016 | 0.6588 ± 0.022 | 0.9309 ± 0.031 | 1.371 ± 0.045
353.15 K, 90000 kPa | 1017.3 ± 0.7 | 1026.9 ± 0.7 | 1036.8 ± 0.7 | 1047 ± 0.7 | – | – | – | –
353.15 K, 100000 kPa | 1020.9 ± 0.7 | 1030.4 ± 0.7 | 1040.1 ± 0.7 | 1050.4 ± 0.8 | 0.4971 ± 0.016 | 0.6731 ± 0.022 | 0.9514 ± 0.031 | 1.409 ± 0.046
353.15 K, 110000 kPa | 1024.4 ± 0.7 | 1033.8 ± 0.7 | 1043.5 ± 0.7 | 1053.6 ± 0.8 | – | – | – | –
353.15 K, 120000 kPa | 1027.8 ± 0.7 | 1037.1 ± 0.7 | 1046.8 ± 0.8 | 1056.8 ± 0.8 | – | – | – | –
353.15 K, 130000 kPa | 1031.1 ± 0.7 | 1040.5 ± 0.7 | 1050 ± 0.8 | 1060 ± 0.8 | – | – | – | –
353.15 K, 140000 kPa | 1034.4 ± 0.7 | 1043.6 ± 0.8 | 1053.1 ± 0.8 | 1063 ± 0.8 | – | – | – | –
373.15 K, 100 kPa | 968.1 ± 0.7 | 978.3 ± 0.7 | 988.7 ± 0.7 | 999.2 ± 0.7 | – | – | – | –
373.15 K, 500 kPa | 968.3 ± 0.7 | 978.6 ± 0.7 | 988.9 ± 0.7 | 999.4 ± 0.7 | – | – | – | –
373.15 K, 1000 kPa | 968.6 ± 0.7 | 978.8 ± 0.7 | 989.2 ± 0.7 | 999.6 ± 0.7 | – | – | – | –
373.15 K, 2000 kPa | 969.1 ± 0.7 | 979.3 ± 0.7 | 989.6 ± 0.7 | 1000.1 ± 0.7 | – | – | – | –
373.15 K, 5000 kPa | 970.4 ± 0.7 | 980.6 ± 0.7 | 990.9 ± 0.7 | 1001.4 ± 0.7 | 0.3586 ± 0.012 | 0.4622 ± 0.015 | 0.6145 ± 0.02 | 0.8545 ± 0.028
373.15 K, 10000 kPa | 972.7 ± 0.7 | 982.8 ± 0.7 | 993.2 ± 0.7 | 1003.6 ± 0.7 | 0.3611 ± 0.012 | 0.4646 ± 0.015 | 0.6194 ± 0.02 | 0.863 ± 0.028
373.15 K, 15000 kPa | 974.9 ± 0.7 | 985 ± 0.7 | 995.3 ± 0.7 | 1005.7 ± 0.7 | 0.3635 ± 0.012 | 0.467 ± 0.015 | 0.6247 ± 0.021 | 0.8727 ± 0.029
373.15 K, 20000 kPa | 977.1 ± 0.7 | 987.2 ± 0.7 | 997.4 ± 0.7 | 1007.8 ± 0.7 | 0.3652 ± 0.012 | 0.4698 ± 0.015 | 0.6304 ± 0.021 | 0.8808 ± 0.029
373.15 K, 25000 kPa | – | – | – | – | 0.3672 ± 0.012 | 0.4729 ± 0.015 | 0.6353 ± 0.021 | 0.889 ± 0.029
